In US12410175B2, “Compounds” (INTRA-CELLULAR THERAPIES, INC., priority 2019, dated 2025):

Legend:
PDE1A = biological target: T1, PDE1A (Homo sapiens, UniProt P54750); assay: IMAP phosphodiesterase assay, PDE1A; type: biochemical; conditions: PDE Target PDE1A
T1 construct: recombinant full length human PDEl A and PDE1B; made in house; host or cells: HEK or SF9 cells

PDE1B = biological target: T2, PDE1B (Homo sapiens, UniProt Q01064); assay: IMAP phosphodiesterase assay, PDE1B; type: biochemical; conditions: PDE Target PDE1B
T2 construct: recombinant full length human PDEl A and PDE1B; made in house; host or cells: HEK or SF9 cells
Excerpt: Measurement of PDEIB Inhibition In Vitro Using IMAP Phosphodiesterase Assay Kit
Phosphodiesterase I B (PDEIB) is a calcium/calmodulin dependent phosphodiesterase enzyme that converts cyclic guanosine monophosphate (cGMP) to 5′-guanosine monophosphate (5′-GMP). PDEIB can also convert a modified cGMP substrate, such as the fluorescent molecule cGMP-fluorescein, to the corresponding GMP-fluorescein. The generation of GMP-fluorescein from cGMP-fluorescein can be quantitated, using, for example, the IMAP (Molecular Devices, Sunnyvale, CA) immobilized-metal affinity particle reagent.
Briefly, the IMAP reagent binds with high affinity to the free 5′-phosphate that is found in GMP-fluorescein and not in cGMP-fluorescein. The resulting GMP-fluorescein-IMAP complex is large relative to cGMP-fluorescein. Small fluorophores that are bound up in a large, slowly tumbling, complex can be distinguished from unbound fluorophores, because the photons emitted as they fluoresce retain the same polarity as the photons used to excite the fluorescence.
In the phosphodiesterase assay, cGMP-fluorescein, which cannot be bound to IMAP, and therefore retains little fluorescence polarization, is converted to GMP-fluorescein, which, when bound to IMAP, yields a large increase in fluorescence polarization (Amp). Inhibition of phosphodiesterase, therefore, is detected as a decrease in Amp.
Materials: All chemicals are available from Sigma-Aldrich (St. Louis, MO) except for IMAP reagents (reaction buffer, binding buffer, FL-GMP and IMAP beads), which are available from Molecular Devices (Sunnyvale, CA). […]
The FL-GMP conversion reaction is initiated by combining 4 parts enzyme and inhibitor mix with 1 part substrate solution (0.225 μM) in a 384-well microtiter plate. […] The plate is incubated at room temperature for 1 hour to allow IMAP binding to proceed to completion, and then placed in an Envision multimode microplate reader (PerkinElmer, Shelton, CT) to measure the fluorescence polarization (Amp).
A decrease in GMP concentration, measured as decreased Amp, is indicative of inhibition of PDE activity.

PDE1C = PDE1C (Homo sapiens, UniProt Q14123); assay: IMAP phosphodiesterase assay, PDE1C; type: biochemical; conditions: PDE Target PDE1C
hPDE2A = hPDE2A (Homo sapiens, UniProt O00408); assay: PDE selectivity assay, hPDE2A; type: biochemical; conditions: PDE Target hPDE2A
hPDE3B = hPDE3B (Homo sapiens, UniProt Q13370); assay: PDE selectivity assay, hPDE3B; type: biochemical; conditions: PDE Target hPDE3B
hPDE4A1A = hPDE4A1A (Homo sapiens, UniProt P27815); assay: PDE selectivity assay, hPDE4A1A; type: biochemical; conditions: PDE Target hPDE4A1A
r-bovine PDE5 = r-bovine PDE5 (Bos taurus, UniProt Q28156); assay: PDE selectivity assay, r-bovine PDE5; type: biochemical; conditions: PDE Target r-bovine PDE5
bovine PDE6 = biological target: T3, bovine PDE6 (Bos taurus, UniProt P11541+P23439); assay: PDE selectivity assay, bovine PDE6; type: biochemical; conditions: PDE Target bovine PDE6
T3 sequence (P11541 2-856 limits assumed): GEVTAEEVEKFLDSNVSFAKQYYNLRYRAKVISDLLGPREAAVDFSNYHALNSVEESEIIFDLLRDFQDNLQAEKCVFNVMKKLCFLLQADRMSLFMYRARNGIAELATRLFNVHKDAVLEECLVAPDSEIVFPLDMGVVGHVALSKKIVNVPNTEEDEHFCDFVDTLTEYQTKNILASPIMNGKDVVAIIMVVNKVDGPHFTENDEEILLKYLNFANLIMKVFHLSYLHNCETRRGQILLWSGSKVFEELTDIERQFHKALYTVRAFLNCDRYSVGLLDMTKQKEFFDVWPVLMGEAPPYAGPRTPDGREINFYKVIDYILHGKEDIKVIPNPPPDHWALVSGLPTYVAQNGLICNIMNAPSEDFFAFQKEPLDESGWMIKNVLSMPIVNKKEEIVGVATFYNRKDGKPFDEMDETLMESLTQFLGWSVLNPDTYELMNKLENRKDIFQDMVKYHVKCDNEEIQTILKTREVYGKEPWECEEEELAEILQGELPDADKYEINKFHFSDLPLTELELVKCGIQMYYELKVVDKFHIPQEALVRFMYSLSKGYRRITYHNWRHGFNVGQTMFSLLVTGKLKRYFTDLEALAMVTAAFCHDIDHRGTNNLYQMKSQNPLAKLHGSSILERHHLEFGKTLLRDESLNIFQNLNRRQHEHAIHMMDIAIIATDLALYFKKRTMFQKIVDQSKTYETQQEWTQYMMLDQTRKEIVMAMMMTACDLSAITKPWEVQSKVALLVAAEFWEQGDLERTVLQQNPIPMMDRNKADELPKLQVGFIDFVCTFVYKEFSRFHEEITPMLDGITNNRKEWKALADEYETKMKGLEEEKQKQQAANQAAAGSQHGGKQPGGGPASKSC
T3 sequence (P23439 2-850 limits assumed): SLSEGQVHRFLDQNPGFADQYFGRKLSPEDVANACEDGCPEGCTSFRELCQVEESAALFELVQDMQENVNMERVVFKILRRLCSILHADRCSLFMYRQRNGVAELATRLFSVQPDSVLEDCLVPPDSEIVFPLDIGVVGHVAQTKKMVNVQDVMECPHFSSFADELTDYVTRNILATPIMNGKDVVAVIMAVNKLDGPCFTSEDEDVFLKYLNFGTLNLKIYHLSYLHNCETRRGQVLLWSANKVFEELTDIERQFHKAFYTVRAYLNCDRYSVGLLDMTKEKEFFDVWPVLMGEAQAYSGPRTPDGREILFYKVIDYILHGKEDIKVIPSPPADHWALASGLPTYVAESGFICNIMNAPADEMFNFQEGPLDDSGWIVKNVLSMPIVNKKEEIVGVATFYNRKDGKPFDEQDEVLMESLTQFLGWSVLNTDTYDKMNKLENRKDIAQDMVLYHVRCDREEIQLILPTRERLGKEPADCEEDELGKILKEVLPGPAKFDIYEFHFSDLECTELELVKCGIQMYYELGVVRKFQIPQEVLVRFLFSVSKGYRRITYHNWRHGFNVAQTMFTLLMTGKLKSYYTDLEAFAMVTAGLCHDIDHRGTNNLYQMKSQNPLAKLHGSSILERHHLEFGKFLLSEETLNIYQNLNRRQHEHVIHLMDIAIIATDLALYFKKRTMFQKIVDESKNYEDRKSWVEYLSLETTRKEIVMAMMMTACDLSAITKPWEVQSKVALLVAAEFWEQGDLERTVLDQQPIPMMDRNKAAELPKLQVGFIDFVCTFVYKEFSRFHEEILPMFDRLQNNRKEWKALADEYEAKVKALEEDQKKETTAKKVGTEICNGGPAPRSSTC

hPDE7B = hPDE7B (Homo sapiens, UniProt Q9NP56); assay: PDE selectivity assay, hPDE7B; type: biochemical; conditions: PDE Target hPDE7B
hPDE8A = hPDE8A (Homo sapiens, UniProt O60658); assay: PDE selectivity assay, hPDE8A; type: biochemical; conditions: PDE Target hPDE8A
hPDE9A = hPDE9A (Homo sapiens, UniProt O76083); assay: PDE selectivity assay, hPDE9A; type: biochemical; conditions: PDE Target hPDE9A
hPDE10A = hPDE10A (Homo sapiens, UniProt Q9Y233); assay: PDE selectivity assay, hPDE10A; type: biochemical; conditions: PDE Target hPDE10A
hPDE11 = hPDE11 (Homo sapiens, UniProt Q9HCR9); assay: PDE selectivity assay, hPDE11; type: biochemical; conditions: PDE Target hPDE11
[1] = Circulating metabolites in human plasma after oral administration of Compound 1; type: in vivo; conditions: after oral administration of Compound 1 (parent)

Chain of hPDE11 (Q9HCR9 whole entry): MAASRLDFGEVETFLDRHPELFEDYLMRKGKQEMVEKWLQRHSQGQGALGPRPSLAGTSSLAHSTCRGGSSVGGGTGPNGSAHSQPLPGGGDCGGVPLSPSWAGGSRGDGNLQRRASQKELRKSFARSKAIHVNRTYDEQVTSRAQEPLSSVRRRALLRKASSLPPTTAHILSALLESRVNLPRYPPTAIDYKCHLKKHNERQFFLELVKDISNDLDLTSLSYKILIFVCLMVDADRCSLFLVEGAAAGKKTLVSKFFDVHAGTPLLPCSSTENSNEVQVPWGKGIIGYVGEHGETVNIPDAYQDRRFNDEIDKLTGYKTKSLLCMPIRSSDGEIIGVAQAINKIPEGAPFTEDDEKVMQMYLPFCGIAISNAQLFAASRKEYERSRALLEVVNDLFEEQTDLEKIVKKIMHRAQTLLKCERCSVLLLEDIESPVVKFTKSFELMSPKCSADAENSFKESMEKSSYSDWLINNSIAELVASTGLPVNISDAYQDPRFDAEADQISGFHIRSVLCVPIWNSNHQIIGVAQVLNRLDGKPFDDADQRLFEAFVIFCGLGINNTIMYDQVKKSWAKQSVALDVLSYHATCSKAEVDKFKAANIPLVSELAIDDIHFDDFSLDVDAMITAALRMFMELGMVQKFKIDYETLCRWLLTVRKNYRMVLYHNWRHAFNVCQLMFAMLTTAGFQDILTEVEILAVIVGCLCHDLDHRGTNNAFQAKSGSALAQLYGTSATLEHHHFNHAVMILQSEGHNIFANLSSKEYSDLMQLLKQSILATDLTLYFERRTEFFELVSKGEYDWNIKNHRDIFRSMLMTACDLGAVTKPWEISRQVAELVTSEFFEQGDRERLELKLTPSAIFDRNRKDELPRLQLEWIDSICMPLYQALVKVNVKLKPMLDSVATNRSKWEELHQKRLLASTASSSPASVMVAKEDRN
Chain of hPDE7B (Q9NP56 whole entry): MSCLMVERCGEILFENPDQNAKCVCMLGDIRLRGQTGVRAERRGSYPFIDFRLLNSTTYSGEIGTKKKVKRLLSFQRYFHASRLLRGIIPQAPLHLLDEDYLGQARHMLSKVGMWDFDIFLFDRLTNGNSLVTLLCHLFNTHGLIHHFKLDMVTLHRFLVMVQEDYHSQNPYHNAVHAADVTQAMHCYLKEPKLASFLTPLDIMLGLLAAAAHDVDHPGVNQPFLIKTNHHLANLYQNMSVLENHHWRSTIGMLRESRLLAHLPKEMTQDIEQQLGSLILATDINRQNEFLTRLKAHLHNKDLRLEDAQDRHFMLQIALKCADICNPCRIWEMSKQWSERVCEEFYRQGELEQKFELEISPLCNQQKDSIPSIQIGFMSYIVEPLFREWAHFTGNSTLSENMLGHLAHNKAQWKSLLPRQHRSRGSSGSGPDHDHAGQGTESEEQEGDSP
Chain of hPDE2A (O00408 whole entry): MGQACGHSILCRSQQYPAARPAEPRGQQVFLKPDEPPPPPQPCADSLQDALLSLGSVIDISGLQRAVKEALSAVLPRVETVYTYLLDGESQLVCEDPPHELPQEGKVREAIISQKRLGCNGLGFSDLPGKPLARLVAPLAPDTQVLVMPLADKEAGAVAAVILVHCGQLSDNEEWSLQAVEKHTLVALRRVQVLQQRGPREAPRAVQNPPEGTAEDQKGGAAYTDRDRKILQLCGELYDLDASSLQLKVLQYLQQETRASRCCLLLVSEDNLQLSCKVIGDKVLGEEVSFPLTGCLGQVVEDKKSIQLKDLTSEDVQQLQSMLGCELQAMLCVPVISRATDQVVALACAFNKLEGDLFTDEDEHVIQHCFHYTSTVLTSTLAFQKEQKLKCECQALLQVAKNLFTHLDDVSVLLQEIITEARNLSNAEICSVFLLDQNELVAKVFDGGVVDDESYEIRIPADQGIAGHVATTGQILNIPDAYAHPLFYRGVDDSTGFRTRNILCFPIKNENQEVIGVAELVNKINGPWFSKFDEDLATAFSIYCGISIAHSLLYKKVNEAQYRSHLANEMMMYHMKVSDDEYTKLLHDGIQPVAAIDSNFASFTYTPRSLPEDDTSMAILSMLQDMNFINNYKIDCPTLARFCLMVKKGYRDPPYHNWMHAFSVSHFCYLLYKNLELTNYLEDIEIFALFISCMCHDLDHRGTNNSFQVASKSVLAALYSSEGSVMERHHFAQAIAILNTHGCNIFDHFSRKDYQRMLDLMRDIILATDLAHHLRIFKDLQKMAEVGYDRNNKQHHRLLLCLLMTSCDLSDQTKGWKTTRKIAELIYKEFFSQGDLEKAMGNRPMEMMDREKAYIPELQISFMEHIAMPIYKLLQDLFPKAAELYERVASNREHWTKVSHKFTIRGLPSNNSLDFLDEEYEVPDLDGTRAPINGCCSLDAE
Chain of hPDE3B (Q13370 whole entry): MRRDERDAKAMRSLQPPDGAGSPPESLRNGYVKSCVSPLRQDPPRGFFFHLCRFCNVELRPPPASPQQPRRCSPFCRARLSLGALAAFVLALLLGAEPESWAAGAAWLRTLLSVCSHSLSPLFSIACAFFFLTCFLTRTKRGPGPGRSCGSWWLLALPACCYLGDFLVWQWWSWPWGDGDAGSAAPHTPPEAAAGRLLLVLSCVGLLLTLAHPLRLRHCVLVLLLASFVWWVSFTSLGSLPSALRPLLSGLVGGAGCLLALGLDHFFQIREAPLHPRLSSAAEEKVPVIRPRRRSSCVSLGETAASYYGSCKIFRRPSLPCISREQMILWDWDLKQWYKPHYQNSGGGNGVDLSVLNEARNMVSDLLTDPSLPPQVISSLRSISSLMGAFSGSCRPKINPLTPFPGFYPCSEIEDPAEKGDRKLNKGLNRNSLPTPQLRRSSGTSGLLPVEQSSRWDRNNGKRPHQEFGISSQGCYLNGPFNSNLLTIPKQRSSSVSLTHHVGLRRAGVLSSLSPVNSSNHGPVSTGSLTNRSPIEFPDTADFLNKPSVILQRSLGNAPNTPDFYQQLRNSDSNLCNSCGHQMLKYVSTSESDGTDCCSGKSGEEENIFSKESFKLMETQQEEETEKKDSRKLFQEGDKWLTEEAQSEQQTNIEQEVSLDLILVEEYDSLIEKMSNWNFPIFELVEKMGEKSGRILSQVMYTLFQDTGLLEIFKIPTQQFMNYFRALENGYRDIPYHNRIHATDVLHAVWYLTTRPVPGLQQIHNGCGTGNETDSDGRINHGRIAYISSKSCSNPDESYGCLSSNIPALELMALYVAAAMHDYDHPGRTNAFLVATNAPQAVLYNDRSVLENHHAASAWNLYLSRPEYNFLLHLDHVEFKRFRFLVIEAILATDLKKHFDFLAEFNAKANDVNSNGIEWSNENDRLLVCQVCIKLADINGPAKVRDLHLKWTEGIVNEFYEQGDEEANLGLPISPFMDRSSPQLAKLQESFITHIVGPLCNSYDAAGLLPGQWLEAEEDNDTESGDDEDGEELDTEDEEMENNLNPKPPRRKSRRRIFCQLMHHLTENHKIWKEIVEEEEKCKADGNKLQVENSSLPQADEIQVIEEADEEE
Chain of hPDE4A1A (P27815 1-647 isoform P27815-4): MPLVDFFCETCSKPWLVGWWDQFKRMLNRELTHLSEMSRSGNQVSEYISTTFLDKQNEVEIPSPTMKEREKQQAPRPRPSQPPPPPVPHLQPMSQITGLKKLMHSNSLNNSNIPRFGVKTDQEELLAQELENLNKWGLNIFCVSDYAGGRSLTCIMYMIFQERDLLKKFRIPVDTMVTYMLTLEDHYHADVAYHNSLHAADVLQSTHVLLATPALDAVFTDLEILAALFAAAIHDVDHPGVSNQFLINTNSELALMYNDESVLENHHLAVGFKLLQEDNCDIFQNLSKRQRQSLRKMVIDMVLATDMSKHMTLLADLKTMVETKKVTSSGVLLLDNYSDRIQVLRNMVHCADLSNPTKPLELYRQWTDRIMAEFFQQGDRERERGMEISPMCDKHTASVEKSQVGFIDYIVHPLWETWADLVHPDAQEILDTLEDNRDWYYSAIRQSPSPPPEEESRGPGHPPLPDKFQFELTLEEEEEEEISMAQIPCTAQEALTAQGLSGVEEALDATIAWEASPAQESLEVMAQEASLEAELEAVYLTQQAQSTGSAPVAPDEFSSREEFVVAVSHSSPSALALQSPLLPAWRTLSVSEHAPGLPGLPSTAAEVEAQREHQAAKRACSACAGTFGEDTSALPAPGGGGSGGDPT
Chain of hPDE8A (O60658 whole entry): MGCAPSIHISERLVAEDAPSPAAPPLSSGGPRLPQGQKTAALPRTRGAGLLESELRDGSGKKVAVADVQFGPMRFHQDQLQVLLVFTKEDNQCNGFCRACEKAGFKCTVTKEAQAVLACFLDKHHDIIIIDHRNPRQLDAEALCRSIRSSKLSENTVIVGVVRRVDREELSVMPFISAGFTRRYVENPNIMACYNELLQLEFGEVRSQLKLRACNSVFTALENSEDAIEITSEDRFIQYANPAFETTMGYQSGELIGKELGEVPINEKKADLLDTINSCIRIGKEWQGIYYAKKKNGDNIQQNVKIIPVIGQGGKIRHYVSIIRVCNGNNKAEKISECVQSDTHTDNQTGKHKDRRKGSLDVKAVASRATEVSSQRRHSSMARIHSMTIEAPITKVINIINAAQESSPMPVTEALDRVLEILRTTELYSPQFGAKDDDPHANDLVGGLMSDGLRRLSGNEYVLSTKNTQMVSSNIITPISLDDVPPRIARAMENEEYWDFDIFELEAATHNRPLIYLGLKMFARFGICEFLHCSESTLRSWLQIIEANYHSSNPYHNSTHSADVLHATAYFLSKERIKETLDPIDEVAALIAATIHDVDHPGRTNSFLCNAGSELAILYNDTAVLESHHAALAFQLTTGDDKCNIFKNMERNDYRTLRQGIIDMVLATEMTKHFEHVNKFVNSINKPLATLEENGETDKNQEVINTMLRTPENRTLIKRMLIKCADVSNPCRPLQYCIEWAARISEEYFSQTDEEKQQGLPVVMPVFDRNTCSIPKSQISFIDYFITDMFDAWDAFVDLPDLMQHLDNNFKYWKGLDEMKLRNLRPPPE

Row | IC50 (PDE1A) [nM] | IC50 (PDE1B) [nM] | IC50 (PDE1C) [nM] | IC50 (hPDE2A) [nM] | IC50 (hPDE3B) [nM] | IC50 (hPDE4A1A) [nM] | IC50 (r-bovine PDE5) [nM] | IC50 (bovine PDE6) [nM] | IC50 (hPDE7B) [nM] | IC50 (hPDE8A) [nM] | IC50 (hPDE9A) [nM] | IC50 (hPDE10A) [nM] | IC50 (hPDE11) [nM] | share of the total circulating drug related materials in human plasma [1] [%] | SMILES
1 | 1.3 | 29 | 1.3 | > 100000 | 49700 | 3660 | 2480 | 4340 | 6610 | 4170 | > 100000 | > 100000 | 5440 | – | CN1C(=O)c2c(nn(Cc3ccc(-c4cccc(F)n4)cc3)c2Nc2ccc(O)cc2)N2C1=N[C@@H]1CCC[C@@H]12 [Compound 1]
2 | 0.042 | 0.015 | 0.042 | ~10000 | ~10000 | 22 | 3.1 | 34 | 118 | 418 | > 10000 | > 10000 | 454 | – | CN1C(=O)c2c(nn(Cc3ccc(-c4cccc(F)n4)cc3)c2Nc2ccccc2)N2C1=N[C@]1(O)CCC[C@H]21 [Compound 2]
3 | 6.3 | 1.4 | 5.4 | 73400 | 20900 | 840 | 156 | 294 | 1240 | 3420 | > 100000 | 67400 | 396 | – | CN1C(=O)c2c(nn(Cc3ccc(-c4cccc(F)n4)cc3)c2Nc2ccc(O)cc2)N2C1=N[C@]1(O)CCC[C@H]21 [Compound 3]
4 | – | – | – | – | – | – | – | – | – | – | – | – | – | 84 | CN1C(=O)c2c(nn(Cc3ccc(-c4cccc(F)n4)cc3)c2Nc2ccccc2)N2C1=N[C@]1(O)CCC[C@H]21 [M-I]
